Here are results for 1 compound from patent publication US20260263415A1, “Sulfonamides With Activity in Acute Kidney Injury and Fibrosis” (University of Pittsburgh - Of the Commonwealth System of …, priority 2023, published 2026).

SMILES strings stand for the structures.

This experiment deals with Zebrafish larvae injected with gentamicin. The experiment in a line: Zebrafish gentamicin kidney injury survival assay. Type of experiment: in vivo. The procedure:
Potential efficacy was tested in zebrafish assays, essentially as follows. Zebrafish were maintained as described (see, e.g., Cianciolo Cosentino, C., et al. (2013) Histone deacetylase inhibitor enhances recovery after AKI. J Am Soc Nephrol, 24 (6), 943-53 and Skrypnyk, N. I., et al. (2016) Delayed treatment with PTBA analogs reduces postinjury renal fibrosis after kidney injury. Am J Physiol Renal Physiol, 310 (8), F705-F716), and embryos from Pitt AB wildtype were used. Zebrafish larvae were injected with a single dose of gentamicin at 3 dpf with 7 ng of gentamicin as previously described. Prior to the gentamicin injection, 3 dpf zebrafish larvae were anesthetized in 0.2% tricaine/E3 medium (5 mM NaCl, 0.33 mM CaCl2), 0.33 mM MgSO4, and 0.17 mM KCl). Glass capillaries were pulled to produce microneedles and were aspirated with […] of 7 ng/nL gentamicin solution diluted with filtered saline solution (Aspen Veterinary Resources, Cat No. 17861615). The larvae were injected with 1 nL gentamicin solution, delivered via the common cardinal vein. After injection, larvae were incubated in 50 μg/mL penicillin/streptomycin diluted in E3 medium. […]
Data were analyzed as compounds that extend survival as measured by Kaplan-Meier estimator.
Table A provides preliminary calculated hazard ratios (n=1) for tested compounds (see also FIGS. 3A and 3B). […]

`COC(=O)CCCSc1ccccc1` [UPHD 25]: for the setting “4 μM from 2 days post-injection, days 5-11 post-fertilization”, the “larval survival compared to the injured, untreated control” value is “increase larval survival”. In addition, under “positive control, all survival assays”, the “survival as measured by Kaplan-Meier estimator” value is “statistically significant”.
